Earlier results in patent publication US6831041B2, “Oil suspension concentrates based on a cyclohexenone oxime ether lithium salt and the use thereof as plant protection agents” (BASF Aktiengesellschaft, priority 2000, dated 2004).

Conditions: formulated together with calcium glyphosate as oil suspension concentrate

CCCC(CC(C)=NOCC=CCl)C1=C(O)CC(C2CCCOC2)CC1=O (stereo not shown) [2-{1-[2-(3-chloroallyloxy)iminopropyl]-butyl}-3-hydroxy-5-(tetrahydropyran-3-yl)cyclohex-2-enone]
stability in formulation (in words): insufficient stability
